Test results published in PubChem BioAssay AID2060602 (Molecular Pharmacology Branch, DTP, NCI, 2025).
Values joined by “and” are separate entries in the source; they are usually repeats but may differ in a detail not shown here. Equal values may be shown once.

Tested on: 648629-189-R-J1-PDC complex spheroids viability
Test: Anticancer human tumor 648629-189-R-J1-PDC patient-derived bladder carcinoma cell line growth inhibition [CLK]
Conditions: for viability, T/C: stronger effect = lower value
Summary of the method: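 Multi-cell-type spheroids combined patient-derived tumor cells with HUVEC endothelial cells and human mesenchymal stem cells. Paired agents were dosed in half-log steps down from about clinical Cmax, or from 10 microM where Cmax was unknown.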

[1] = curve of first compound, second compound 0.0316 µM
[2] = curve of first compound, second compound 0.1 µM
[3] = curve of first compound, second compound 0.316 µM
[4] = curve of first compound, second compound 1 µM
[5] = curve of first compound, second compound 3.16 µM
[6] = curve of first compound, second compound 10 µM
[7] = second compound 0.0316 µM, first compound 0.0316 µM
[8] = second compound 0.0316 µM, first compound 0.1 µM
[9] = second compound 0.0316 µM, first compound 0.316 µM
[10] = second compound 0.0316 µM, first compound 1 µM
[11] = second compound 0.1 µM, first compound 0.0316 µM
[12] = second compound 0.1 µM, first compound 0.1 µM
[13] = second compound 0.1 µM, first compound 0.316 µM
[14] = second compound 0.1 µM, first compound 1 µM
[15] = second compound 0.316 µM, first compound 0.0316 µM
[16] = second compound 0.316 µM, first compound 0.1 µM
[17] = second compound 0.316 µM, first compound 0.316 µM
[18] = second compound 0.316 µM, first compound 1 µM
[19] = second compound 1 µM, first compound 0.0316 µM
[20] = second compound 1 µM, first compound 0.1 µM
[21] = second compound 1 µM, first compound 0.316 µM
[22] = second compound 1 µM, first compound 1 µM
[23] = second compound 3.16 µM, first compound 0.0316 µM
[24] = second compound 3.16 µM, first compound 0.1 µM
[25] = second compound 3.16 µM, first compound 0.316 µM
[26] = second compound 3.16 µM, first compound 1 µM
[27] = second compound 10 µM, first compound 0.0316 µM
[28] = second compound 10 µM, first compound 0.1 µM
[29] = second compound 10 µM, first compound 0.316 µM
[30] = second compound 10 µM, first compound 1 µM
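Wherever viability, T/C is given: drug exposure lasted seven days before viability readout; 100% = DMSO vehicle control wells.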

SMILES: CC(C)CC(NC(=O)C(Cc1ccccc1)NC(=O)c1cnccn1)B(O)O (stereo not given) + CNC(=O)c1ccc(Nc2nc(OC3CCCC3)c3c(-c4ccc5nc(C)oc5c4)c[nH]c3n2)c(OC)c1
- IC50 [1]: 3.04 nM
- IC50 [2]: 2.21 nM
- IC50 [3]: < 0.949 nM
- IC50 [4]: < 0.949 nM
- IC50 [5]: < 0.949 nM
- IC50 [6]: < 0.949 nM
- viability, T/C (second compound 0.0316 µM, first compound 0.000949 µM): 105%
- viability, T/C (second compound 0.0316 µM, first compound 0.003 µM): 50.5%
- viability, T/C (second compound 0.0316 µM, first compound 0.00949 µM): 1.99%
- viability, T/C (second compound 0.0316 µM, first compound 0.03 µM): 0.26%
- viability, T/C (second compound 0.0316 µM, first compound 0.0949 µM): 0.18%
- viability, T/C (second compound 0.0316 µM, first compound 0.3 µM): 1.59%
- viability, T/C (second compound 0.1 µM, first compound 0.000949 µM): 91.4%
- viability, T/C (second compound 0.1 µM, first compound 0.003 µM): 35%
- viability, T/C (second compound 0.1 µM, first compound 0.00949 µM): 0.64%
- viability, T/C (second compound 0.1 µM, first compound 0.03 µM): 0.21%
- viability, T/C (second compound 0.1 µM, first compound 0.0949 µM): 0.15%
- viability, T/C (second compound 0.1 µM, first compound 0.3 µM): 1.03%
- viability, T/C (second compound 0.316 µM, first compound 0.000949 µM): 34.9%
- viability, T/C (second compound 0.316 µM, first compound 0.003 µM): 35%
- viability, T/C (second compound 0.316 µM, first compound 0.00949 µM): 0.45%
- viability, T/C (second compound 0.316 µM, first compound 0.03 µM): 0.28%
- viability, T/C (second compound 0.316 µM, first compound 0.0949 µM): 0.76%
- viability, T/C (second compound 0.316 µM, first compound 0.3 µM): 0.16%
- viability, T/C (second compound 1 µM, first compound 0.000949 µM): 23.6%
- viability, T/C (second compound 1 µM, first compound 0.003 µM): 24.1%
- viability, T/C (second compound 1 µM, first compound 0.00949 µM): 2.18%
- viability, T/C (second compound 1 µM, first compound 0.03 µM): 0.36%
- viability, T/C (second compound 1 µM, first compound 0.0949 µM): 0.34%
- viability, T/C (second compound 1 µM, first compound 0.3 µM): 1.9%
- viability, T/C (second compound 3.16 µM, first compound 0.000949 µM): 28.1%
- viability, T/C (second compound 3.16 µM, first compound 0.003 µM): 9.77%
- viability, T/C (second compound 3.16 µM, first compound 0.00949 µM): 3.72%
- viability, T/C (second compound 3.16 µM, first compound 0.03 µM): 0.62%
- viability, T/C (second compound 3.16 µM, first compound 0.0949 µM): 1.49%
- viability, T/C (second compound 3.16 µM, first compound 0.3 µM): 0.23%
- viability, T/C (second compound 10 µM, first compound 0.000949 µM): 24.2%
- viability, T/C (second compound 10 µM, first compound 0.003 µM): 14.2%
- viability, T/C (second compound 10 µM, first compound 0.00949 µM): 1.91%
- viability, T/C (second compound 10 µM, first compound 0.03 µM): 0.53%
- viability, T/C (second compound 10 µM, first compound 0.0949 µM): 1.61%
- viability, T/C (second compound 10 µM, first compound 0.3 µM): 1.49%

SMILES: COc1c(OCCCN2CCOCC2)ccc2c3n(c(=NC(=O)c4cnc(N)nc4)nc12)CCN3
- viability, T/C (compound 0.00316 µM): 115% and 94.4%
- viability, T/C (compound 0.01 µM): 90.3% and 90.5%
- viability, T/C (compound 0.0316 µM): 74.8% and 77.7%
- viability, T/C (compound 0.1 µM): 46% and 41.9%
- viability, T/C (compound 0.316 µM): 16.8% and 13.3%
- viability, T/C (compound 1 µM): 7.93% and 6.55%
- IC50 (curve of compound): 78.3 nM and 76.7 nM

SMILES: C=C(F)C(=O)N1CCN(c2nc(OCC3CCCN3C)nc3c2CCN(c2cccc4cccc(Cl)c24)C3)CC1CC#N (stereo not given) + CNC(=O)c1ccc(Nc2nc(OC3CCCC3)c3c(-c4ccc5nc(C)oc5c4)c[nH]c3n2)c(OC)c1
- IC50 [1]: 5950 nM
- IC50 [2]: 3810 nM
- IC50 [3]: < 31.6 nM
- IC50 [4]: < 31.6 nM
- IC50 [5]: < 31.6 nM
- IC50 [6]: < 31.6 nM
- viability, T/C [7]: 110%
- viability, T/C [8]: 107%
- viability, T/C [9]: 120%
- viability, T/C [10]: 106%
- viability, T/C (second compound 0.0316 µM, first compound 3.16 µM): 111%
- viability, T/C (second compound 0.0316 µM, first compound 10 µM): 0.23%
- viability, T/C [11]: 70.8%
- viability, T/C [12]: 71.7%
- viability, T/C [13]: 66.6%
- viability, T/C [14]: 65%
- viability, T/C (second compound 0.1 µM, first compound 3.16 µM): 60.1%
- viability, T/C (second compound 0.1 µM, first compound 10 µM): 0.52%
- viability, T/C [15]: 26%
- viability, T/C [16]: 27.9%
- viability, T/C [17]: 29%
- viability, T/C [18]: 22.4%
- viability, T/C (second compound 0.316 µM, first compound 3.16 µM): 24.4%
- viability, T/C (second compound 0.316 µM, first compound 10 µM): 0.16%
- viability, T/C [19]: 18.6%
- viability, T/C [20]: 17.9%
- viability, T/C [21]: 23%
- viability, T/C [22]: 20.2%
- viability, T/C (second compound 1 µM, first compound 3.16 µM): 20.8%
- viability, T/C (second compound 1 µM, first compound 10 µM): 0.14%
- viability, T/C [23]: 18.8%
- viability, T/C [24]: 19.3%
- viability, T/C [25]: 19.9%
- viability, T/C [26]: 19.4%
- viability, T/C (second compound 3.16 µM, first compound 3.16 µM): 19.7%
- viability, T/C (second compound 3.16 µM, first compound 10 µM): 0.19%
- viability, T/C [27]: 21.2%
- viability, T/C [28]: 18.6%
- viability, T/C [29]: 18.2%
- viability, T/C [30]: 19.8%
- viability, T/C (second compound 10 µM, first compound 3.16 µM): 19.1%
- viability, T/C (second compound 10 µM, first compound 10 µM): 0.26%

SMILES: CCN1CCN(Cc2ccc(Nc3ncc(F)c(-c4cc(F)c5nc(C)n(C(C)C)c5c4)n3)nc2)CC1 + CNC(=O)c1ccc(Nc2nc(OC3CCCC3)c3c(-c4ccc5nc(C)oc5c4)c[nH]c3n2)c(OC)c1
- IC50 [1]: > 1000 nM
- IC50 [2]: > 1000 nM
- IC50 [3]: < 3.16 nM
- IC50 [4]: < 3.16 nM
- IC50 [5]: < 3.16 nM
- IC50 [6]: < 3.16 nM
- viability, T/C (second compound 0.0316 µM, first compound 0.00316 µM): 98.4%
- viability, T/C (second compound 0.0316 µM, first compound 0.01 µM): 103%
- viability, T/C [7]: 107%
- viability, T/C [8]: 100%
- viability, T/C [9]: 113%
- viability, T/C [10]: 136%
- viability, T/C (second compound 0.1 µM, first compound 0.00316 µM): 81.3%
- viability, T/C (second compound 0.1 µM, first compound 0.01 µM): 92.8%
- viability, T/C [11]: 104%
- viability, T/C [12]: 80.7%
- viability, T/C [13]: 102%
- viability, T/C [14]: 129%
- viability, T/C (second compound 0.316 µM, first compound 0.00316 µM): 30.2%
- viability, T/C (second compound 0.316 µM, first compound 0.01 µM): 28.1%
- viability, T/C [15]: 24.2%
- viability, T/C [16]: 28.4%
- viability, T/C [17]: 36.4%
- viability, T/C [18]: 39.6%
- viability, T/C (second compound 1 µM, first compound 0.00316 µM): 17.2%
- viability, T/C (second compound 1 µM, first compound 0.01 µM): 23%
- viability, T/C [19]: 19.1%
- viability, T/C [20]: 24.1%
- viability, T/C [21]: 21.5%
- viability, T/C [22]: 31.1%
- viability, T/C (second compound 3.16 µM, first compound 0.00316 µM): 18.2%
- viability, T/C (second compound 3.16 µM, first compound 0.01 µM): 18.6%
- viability, T/C [23]: 20.9%
- viability, T/C [24]: 17.8%
- viability, T/C [25]: 23.9%
- viability, T/C [26]: 25.1%
- viability, T/C (second compound 10 µM, first compound 0.00316 µM): 16.2%
- viability, T/C (second compound 10 µM, first compound 0.01 µM): 18.9%
- viability, T/C [27]: 18.1%
- viability, T/C [28]: 18.9%
- viability, T/C [29]: 24.3%
- viability, T/C [30]: 23.8%

SMILES: CC(=O)O[C@H]1C(=O)[C@@]2(C)[C@H]([C@H](OC(=O)c3ccccc3)[C@]3(O)C[C@H](OC(=O)[C@H](O)[C@@H](NC(=O)c4ccccc4)c4ccccc4)C(C)=C1C3(C)C)[C@]1(OC(C)=O)CO[C@@H]1C[C@@H]2O
- viability, T/C (compound 0.0316 µM): 10.4% and 11.2%
- viability, T/C (compound 0.1 µM): 10.1% and 12.7%
- viability, T/C (compound 0.316 µM): 10.1% and 11.7%
- viability, T/C (compound 1 µM): 12.9% and 13.5%
- viability, T/C (compound 3.16 µM): 10.8% and 10.5%
- viability, T/C (compound 10 µM): 13.3% and 15.2%
- IC50 (curve of compound): < 31.6 nM
